# “Also recorded” adds a separate entry of the source.
# Test system: MSCs
# Assay: Whole genome expression analysis (Illumina microarray) of treated MSCs
# Format: cell-based, Human
# Protocol: MSCs were seeded in T25 flasks at 5000 cells/cm^2 and allowed to attach overnight in proliferation medium. […] After 48 hours, RNA was isolated as described above. From 500 ng of RNA, cRNA was synthesized using the Illumina TotalPrep RNA amplification Kit (Ambion), according to the manufacturer's protocol and the quality of RNA and cRNA was verified on a Bioanalyzer 2100 (Agilent). Microarrays were performed using Illumina HT-12 v4 expression Beadchips, according to the manufacturer's protocol. Briefly, 750 ng of cRNA was hybridized on the array overnight after which the array was washed and blocked. Then, by addition of streptavidin Cy-3 a fluorescent signal was developed. Arrays were scanned on an Illumina iScan reader and raw intensity values were background corrected in GenomeStudio (Illumina). Further data processing and statistical testing were performed with R and Bioconductor statistical software (www.bioconductor.org), using package lumi. Raw intensity values were transformed using variance stabilization and a quantile normalization was performed. A linear modelling approach with empirical Bayesian methods, as implemented in Limma package (54), was applied for differential expression analysis of the resulting probe-level expression values. A gene list, containing only those genes with an absolute 1.5-fold change between different treatments, was uploaded to Ingenuity Pathway Analysis (IPA) software and used for core analysis. Pathways or networks with a p-value of 0.05 were considered statistically significant.
compound,measurement,setting,value
"c1cnc2c(c1)ccc1cccnc12 [PHE, 1, 10-phenanthroline]",interleukin-8 (Il-8) gene expression,"MSCs treated for two days, 150 µM DFO or 200 µM PHE",highly induced
same,"expression of HRE-containing genes (metabolism, cell growth and survival, endothelial genes)","MSCs treated for two days, 150 µM DFO or 200 µM PHE, relative to basic medium",most genes were strongest induced; also recorded: markedly induced higher expression
same,expression of RelA,PHE compared to hypoxia or DFO-treated cells,higher
same,expression of P300,PHE-treated cells,higher expression
same,logFC(D142_PHE - D142_BAS) BNIP3L,ProbeID ILMN 2045419,"2,33"
same,logFC(D142_PHE - D142_BAS) CYTH2,ProbeID ILMN 3188106,"2,19"
same,logFC(D142_PHE - D142_BAS) HIST1H2BD,ProbeID ILMN_1651496,"3,85"
same,logFC(D142_PHE - D142_BAS) MGP,ProbeID ILMN_1651958,"-2,09"
same,logFC(D142_PHE - D142_BAS) PFKFB4,ProbeID ILMN_1653292,"4,21"
same,logFC(D142_PHE - D142_BAS) HES4,ProbeID ILMN_1653466,"2,11"
same,logFC(D142_PHE - D142_BAS),ProbeID ILMN_1655796,"2,37"
same,logFC(D142_PHE - D142_BAS) ELL2,ProbeID ILMN_1655930,"2,00"
same,logFC(D142_PHE - D142_BAS) PLAU,"ProbeID ILMN_1656057, PHE vs BAS","-3,95"
same,logFC(D142_PHE - D142_BAS) DUSP5,ProbeID ILMN_1656501,"3,07"
same,logFC(D142_PHE - D142_BAS) C1orf198,"ProbeID ILMN_1657683, PHE vs BAS","-2,35"
same,logFC(D142_PHE - D142_BAS) STMN1,ProbeID ILMN_1657796,"-2,32"
same,logFC(D142_PHE - D142_BAS) LOC728946,ProbeID ILMN_1657962,"-2,02"
same,logFC(D142_PHE - D142_BAS) SLC2A1,ProbeID ILMN_1659027,"4,08"
same,logFC(D142_PHE - D142_BAS) HIST2H2AA3,ProbeID ILMN_1659047,"3,78"
same,logFC(D142_PHE - D142_BAS) PPP1R15A,ProbeID ILMN_1659936,"2,65"
same,logFC(D142_PHE - D142_BAS) C7orf68,ProbeID ILMN_1659990,"3,65"
same,logFC(D142_PHE - D142_BAS) CDCA2,ProbeID ILMN_1660654,"2,66"
same,logFC(D142_PHE - D142_BAS) PFKFB3,ProbeID ILMN_1660847,"3,69"
same,logFC(D142_PHE - D142_BAS) LOC648210,ProbeID ILMN_1661346,"-2,02"
same,logFC(D142_PHE - D142_BAS) DDIT4,ProbeID ILMN_1661599,"4,48"
same,logFC(D142_PHE - D142_BAS) TFPI,ProbeID ILMN_1662619,"2,06"
same,logFC(D142_PHE - D142_BAS) CDC20,"ProbeID ILMN_1663390, PHE vs BAS","-2,55"
same,logFC(D142_PHE - D142_BAS) MGC87042,"ProbeID ILMN_1663575, PHE vs BAS","-2,77"
same,logFC(D142_PHE - D142_BAS) PPP1R14C,ProbeID ILMN_1664855,"2,96"
same,logFC(D142_PHE - D142_BAS) ERRFI1,ProbeID ILMN_1665510,"3,36"
same,logFC(D142_PHE - D142_BAS) TNFRSF10D,ProbeID ILMN_1666022,"3,48"
same,logFC(D142_PHE - D142_BAS) CDKN3,"ProbeID ILMN_1666305, PHE vs BAS","-2,37"
same,logFC(D142_PHE - D142_BAS) GCNT1,ProbeID ILMN_1666545,"-2,01"
same,logFC(D142_PHE - D142_BAS) IL8,ProbeID ILMN_1666733,"5,35"
same,logFC(D142_PHE - D142_BAS) PTGIS,ProbeID ILMN_1667692,"-2,11"
same,logFC(D142_PHE - D142_BAS) PPFIA4,ProbeID ILMN_1667791,"2,71"
same,logFC(D142_PHE - D142_BAS) TNS3,"ProbeID ILMN_1667893, PHE vs BAS","-2,61"
same,logFC(D142_PHE - D142_BAS) OAF,ProbeID ILMN_1668345,"-2,06"
same,logFC(D142_PHE - D142_BAS) LOC732165,ProbeID ILMN_1668861,"2,33"
same,logFC(D142_PHE - D142_BAS) LOC728946,"ProbeID ILMN_1669119, PHE vs BAS","-2,56"
same,logFC(D142_PHE - D142_BAS) ILF3,ProbeID ILMN_1669584,"-2,03"
same,logFC(D142_PHE - D142_BAS) CKB,ProbeID ILMN_1671478,"2,73"
same,logFC(D142_PHE - D142_BAS) ACTA2,"ProbeID ILMN_1671703, PHE vs BAS","-3,04"
same,logFC(D142_PHE - D142_BAS) AVPI1,ProbeID ILMN_1671731,"2,16"
same,logFC(D142_PHE - D142_BAS) JAM2,ProbeID ILMN_1672350,"2,37"
same,logFC(D142_PHE - D142_BAS) KISS1R,ProbeID ILMN_1673521,"3,05"
same,logFC(D142_PHE - D142_BAS) TFRC,ProbeID ILMN_1674243,"2,40"
same,logFC(D142_PHE - D142_BAS) ANGPTL4,ProbeID ILMN_1674376,"2,49"
same,logFC(D142_PHE - D142_BAS) MYL9,ProbeID ILMN_1675062,"-2,11"
same,logFC(D142_PHE - D142_BAS) MT3,ProbeID ILMN_1675947,"4,91"
same,logFC(D142_PHE - D142_BAS) MSRB3,"ProbeID ILMN_1676088, PHE vs BAS","-2,43"
same,logFC(D142_PHE - D142_BAS) INSIG2,ProbeID ILMN_1676629,"2,16"
same,logFC(D142_PHE - D142_BAS) TNFRSF11B,"ProbeID ILMN_1676663, PHE vs BAS","-3,04"
same,logFC(D142_PHE - D142_BAS) YEATS2,ProbeID ILMN_1676899,"2,21"
same,logFC(D142_PHE - D142_BAS) PTGS2,ProbeID ILMN_1677511,"2,13"
same,logFC(D142_PHE - D142_BAS) CHN1,"ProbeID ILMN_1678493, PHE vs BAS","-2,73"
same,logFC(D142_PHE - D142_BAS) THBS2,ProbeID ILMN_1678842,"-2,24"
same,logFC(D142_PHE - D142_BAS) SLC3A2,ProbeID ILMN_1679041,"2,15"
same,logFC(D142_PHE - D142_BAS) CLK1,ProbeID ILMN_1679727,"2,72"
same,logFC(D142_PHE - D142_BAS) MAFF,ProbeID ILMN_1680139,"3,87"
same,logFC(D142_PHE - D142_BAS) C5orf13,"ProbeID ILMN_1680738, PHE vs BAS","-2,41"
same,logFC(D142_PHE - D142_BAS) GPRC5A,ProbeID ILMN_1682599,"4,51"
same,logFC(D142_PHE - D142_BAS) IER3,ProbeID ILMN_1682717,"2,62"
same,logFC(D142_PHE - D142_BAS) RRAD,ProbeID ILMN_1683179,"2,75"
same,logFC(D142_PHE - D142_BAS) LOC286016,ProbeID ILMN_1684114,"2,09"
same,logFC(D142_PHE - D142_BAS) GPT2,ProbeID ILMN_1684158,"2,19"
same,logFC(D142_PHE - D142_BAS) COL16A1,ProbeID ILMN_1684554,"-2,06"
same,logFC(D142_PHE - D142_BAS) ASAP3,"ProbeID ILMN_1685441, PHE vs BAS","-2,35"
same,logFC(D142_PHE - D142_BAS) INHBB,ProbeID ILMN_1685714,"3,60"
same,logFC(D142_PHE - D142_BAS) TOP2A,"ProbeID ILMN_1686097, PHE vs BAS","-3,07"
same,logFC(D142_PHE - D142_BAS) THBS1,"ProbeID ILMN_1686116, PHE vs BAS","-3,00"
same,logFC(D142_PHE - D142_BAS) VCAN,"ProbeID ILMN_1687301, PHE vs BAS","-2,38"
same,logFC(D142_PHE - D142_BAS) BAALC,ProbeID ILMN_1687751,"-2,07"
same,logFC(D142_PHE - D142_BAS) COLEC12,"ProbeID ILMN_1689088, PHE vs BAS","-3,75"
same,logFC(D142_PHE - D142_BAS) CXCL12,"ProbeID ILMN_1689111, PHE vs BAS","-3,44"
same,logFC(D142_PHE - D142_BAS) NIPA1,ProbeID ILMN_1689274,"2,08"
same,logFC(D142_PHE - D142_BAS) STAT1,ProbeID ILMN_1690105,"-2,04"
same,logFC(D142_PHE - D142_BAS) PDLIM7,"ProbeID ILMN_1690125, PHE vs BAS","-2,57"
same,logFC(D142_PHE - D142_BAS) STAT2,ProbeID ILMN_1690921,"-2,24"
same,logFC(D142_PHE - D142_BAS) STAT1,"ProbeID ILMN_1691364, PHE vs BAS","-2,77"
same,logFC(D142_PHE - D142_BAS) MYLK,"ProbeID ILMN_1691476, PHE vs BAS","-3,27"
same,logFC(D142_PHE - D142_BAS) STC2,ProbeID ILMN_1691884,"3,81"
same,logFC(D142_PHE - D142_BAS) KLHL21,ProbeID ILMN_1692785,"2,54"
same,logFC(D142_PHE - D142_BAS) PSAT1,ProbeID ILMN_1692938,"2,74"
same,logFC(D142_PHE - D142_BAS) P4HA1,ProbeID ILMN_1693334,"3,46"
same,logFC(D142_PHE - D142_BAS) MAP2K1,ProbeID ILMN_1694240,"2,11"
same,logFC(D142_PHE - D142_BAS) PANX2,ProbeID ILMN_1694810,"2,42"
same,logFC(D142_PHE - D142_BAS) KIF20A,"ProbeID ILMN_1695658, PHE vs BAS","-3,25"
same,logFC(D142_PHE - D142_BAS) DDIT4L,ProbeID ILMN_1696537,"-2,12"
same,logFC(D142_PHE - D142_BAS) VARS,ProbeID ILMN_1696601,"-2,08"
same,logFC(D142_PHE - D142_BAS) TNFRSF10B,ProbeID ILMN_1699265,"2,54"
same,logFC(D142_PHE - D142_BAS),ProbeID ILMN_1699644,"2,20"

# Source: patent publication EP2607478A1, “Phenanthroline treated MSC” (Universiteit Twente, priority 2011, dated 2013)
